Experimental data: patent US12397058B2, “Metabolically stable prodrugs” (TSRL, Inc., priority 2018, dated 2025)
pEC50: −log10 of the molar value. Like-named read-outs stand apart in the source and are kept apart here.

Tests used:
hCMV1 AD169 = assay: Primary CPE reduction assay in HFF cells, hCMV AD169; assay type: cell-based, human Cytomegalovirus
Protocol: (§1) Screening Assays for HSV-1, HSV-2, CMV, and VZV
(§2) Cells. Human foreskin fibroblast (HFF) cells were prepared from human foreskin tissue. The tissue was incubated at 4° C. for 4 h in Clinical Medium and then placed in phosphate buffered saline (PBS) to remove the red blood cells, and resuspended in trypsin/EDTA solution. The tissue suspension was incubated at 37° C. and gently agitated to disperse the cells, which were collected by centrifugation. Cells were resuspended in 4 ml Clinical Medium and placed in a flask and incubated at 37° C. in a humidified CO2 incubator for 24 h. The media was then replaced with fresh Clinical Medium and the cell growth was monitored daily until a confluent monolayer has formed. The HFF cells were then expanded through serial passages in standard growth medium of MEM with Earl's salts supplemented with 10% FBS and antibiotics. The cells were passaged routinely and used for assays at or below passage 10.
(§3) Primary Cytopathic Effect (CPE) Reduction Assay. Low passage (3-10) HFF cells were trypsinized, counted, and seeded into 96 well tissue culture plates in 0.1 ml of MEM supplemented with 10% FBS. The cells were then incubated for 24 h at 37° C. The media was then removed and 100 μl of MEM containing 2% FBS was added to all but the first row. In the first row, 125 μl of media containing the experimental drug was added in triplicate wells. Media alone was added to both cell and virus control wells. The drug in the first row of wells was then diluted serially 1:5 throughout the remaining. The plates were then incubated for 60 min and 100 μl of a virus suspension was added to each well, excluding cell control wells which received 100 μl of MEM. The plates were then incubated at 37° C. in a CO2 incubator for three days for HSV-1 and HSV-2, 10 days for VZV, or 14 d for CMV. After the incubation period, media was aspirated and the cells stained with crystal violet in formalin for 4 h. The stain was then removed and the plates were rinsed until all excess stain was removed. The plates were allowed to dry for 24 h and the amount of CPE in each row determined using a BioTek Multiplate Autoreader. EC50 and CC50 values were determined by comparing drug treated and untreated cells using a computer program.

VZV Ellen = assay: microbe, parasite or virus in culture; assay type: cell-based, Vericella Zoster Virus
Protocol: as §1, §2, §3

HSV2 G = assay: Primary CPE reduction assay in HFF cells, HSV2 G; assay type: cell-based, Herpes Simplex Virus 2
Protocol: as §1, §2, §3

mCMV Smith = assay: Primary CPE reduction assay, mCMV Smith; assay type: cell-based, murine Cytomegalovirus; details: for pEC50: Murid betaherpesvirus 1, read-out: EC50 (50% reduction in the Cytopathic Effect of the virus)
[1] = tested on: Human Cytomegalovirus Strain AD169; assay: Additional study versus Human Cytomegalovirus Strain AD169 in HFF cells (procedures of US 2011/0263535 A1); assay type: cell-based
Protocol: Additional studies in HFF cells were performed using the procedures as outlined in US Patent Application Publication No: 2011/0263535 A1 with compounds of 120, 121, and 122. Each of the compounds were tested versus Human Cytomegalovirus Strain AD169 in HFF cells using ganciclovir as a comparator.

HSV1 E377 = assay: microbe, parasite or virus in culture; assay type: cell-based, Herpes Simplex Virus 1
Protocol: as §1, §2, §3

hCMV2 GDGRK17 = assay: Primary CPE reduction assay in HFF cells, hCMV GDGRK17; assay type: cell-based, human Cytomegalovirus; details: for pEC50: Human betaherpesvirus 5, HFF, read-out: EC50 (50% reduction in the Cytopathic Effect of the virus); for TI (therapeutic index derived from EC50/CC50): hCMV2 GDGRK17, HFF cells
Protocol: as §1, §2, §3

HSV1 strain DM2.1 = assay: Primary CPE reduction assay in HFF cells, HSV1 strain DM2.1; assay type: cell-based, Herpes Simplex Virus 1
Protocol: as §1, §2
Primary Cytopathic Effect (CPE) Reduction Assay. Low passage (3-10) HFF cells were trypsinized, counted, and seeded into 96 well tissue culture plates in 0.1 ml of MEM supplemented with 10% FBS. […] The plates were allowed to dry for 24 h and the amount of CPE in each row determined using a BioTek Multiplate Autoreader. EC50 and CC50 values were determined by comparing drug treated and untreated cells using a computer program.

[2] = Human betaherpesvirus 5, AD169, HFF, read-out: EC50 (50% reduction in the Cytopathic Effect of the virus)
[3] = Human Cytomegalovirus Strain AD169 in HFF cells
[4] = Human alphaherpesvirus 1, HFF, read-out: EC50 (50% reduction in the Cytopathic Effect of the virus)
[5] = Human betaherpesvirus 5, read-out: EC50 (50% reduction in the Cytopathic Effect of the virus), hCMV1 AD169, HFF cells

| Compound | pEC50 (hCMV1 AD169; [2]) | TI (therapeutic index derived from EC50/CC50) (hCMV1 AD169; hCMV1 AD169, HFF cells) | TI (therapeutic index derived from EC50/CC50) (mCMV Smith; mCMV Smith) | Therapeutic index EC90/HFF Cytotoxicity 50% [1, 3] | TI (therapeutic index derived from EC50/CC50) (HSV1 E377; HSV1 E377, HFF cells) | pEC50 (hCMV2 GDGRK17) | TI (therapeutic index derived from EC50/CC50) (hCMV2 GDGRK17) | pEC50 (hCMV1 AD169; [5]) | other results |
| --- | --- | --- | --- | --- | --- | --- | --- | --- | --- |
| N.Nc1ccn(C[C@@H](CO)OCP(=O)(O)OCCCS(=O)(=O)CCCCCCCCCCCCCC2CCC2)c(=O)n1 [Compound 122, Ammonium 3-((13-cyclobutyltridecyl)sulfonyl)propyl hydrogen ((((S)-1-(4-amino-2-oxopyrimidin-1(2H)-yl)-3-hydroxypropan-2-yl)oxy)methyl)phosphonate] | > 8.00 | >19 | >3125 | >13 | 469 | > 9.52 | >2209 |  | pEC50 (VZV Ellen; Human alphaherpesvirus 3, HFF, read-out: EC50 (50% reduction in the Cytopathic Effect of the virus)): 8.15; TI (therapeutic index derived from EC50/CC50) (VZV Ellen; VZV Ellen, HFF cells): 31; TI (therapeutic index derived from CC50/EC50) (HSV2 G; HSV2 G, HFF cells): >14; pEC50 (HSV2 G; Human alphaherpesvirus 2, HFF, read-out: EC50 (50% reduction in the Cytopathic Effect of the virus)): 6.85; pEC50 (mCMV Smith): > 9.52; EC90 ([1]; Human betaherpesvirus 5, AD169, HFF): < 20 nM; pEC50 (HSV1 E377; [4]): 7.70 |
| N.Nc1ccn(C[C@@H](CO)OCP(=O)(O)OCCCS(=O)(=O)CCCCCCCCCCCCCCC2CCC2)c(=O)n1 [Compound 123, Ammonium 3-((14-cyclobutyltetradecyl)sulfonyl)propyl (S)-(((1-(4-amino-2-oxopyrimidin-1(2H)-yl)-3-hydroxypropan-2-yl)oxy)methyl)phosphonate] | > 7.30 | >5 |  |  |  |  |  |  | TI (therapeutic index derived from EC50/CC50) (HSV1 strain DM2.1; HSV1 strain DM2.1 (footnote a), HFF cells): >142^a; pEC50 (HSV1 strain DM2.1; [4]): > 7.30 |
| CCOC(=O)P(=O)(OCCCS(=O)(=O)CCCCCCCC1(C)COC1)OCCCS(=O)(=O)CCCCCCCC1(C)COC1 [Compound 124, Ethyl (bis(3-((7-(3-methyloxetan-3-yl)heptyl)sulfonyl)-propoxy)phosphoryl)formate] |  | 1 |  |  | 1 |  |  | < 3.82 | pEC50 (HSV1 E377; Human alphaherpesvirus 1, read-out: EC50 (50% reduction in the Cytopathic Effect of the virus), HSV1 E377, HFF cells): < 3.82 |
| CCCCCCCCCCCCCCCCCCS(=O)(=O)CCCOP(=O)(OCCCS(=O)(=O)CCCCCCCCCCCCCCCCCC)C(=O)OCC [Compound 125, Ethyl (bis(3-(octadecylsulfonyl)propoxy)phosphoryl)formate] |  | >1 |  |  |  |  |  | 3.88 |  |
| Nc1nc(O)c2ncn(COC(CO)CO)c2n1 [Ganciclovir, reference compound] |  | >92 | >882 | 1 |  | 6.82 | >1030 | 5.79 | pEC50 (mCMV Smith; mCMV Smith): 6.77; EC90 ([1]; Human betaherpesvirus 5, Human Cytomegalovirus Strain AD169 in HFF cells, read-out: EC90): > 150000 nM |
